From BindingDB's records for patent US9487490 (Merck Sharp & Dohme Corp, 2016)

Target: T1, Isoform 2 of Nuclear receptor ROR-gamma (RORgT) (Homo sapiens, UniProt P51449)
T1 sequence (P51449 whole entry): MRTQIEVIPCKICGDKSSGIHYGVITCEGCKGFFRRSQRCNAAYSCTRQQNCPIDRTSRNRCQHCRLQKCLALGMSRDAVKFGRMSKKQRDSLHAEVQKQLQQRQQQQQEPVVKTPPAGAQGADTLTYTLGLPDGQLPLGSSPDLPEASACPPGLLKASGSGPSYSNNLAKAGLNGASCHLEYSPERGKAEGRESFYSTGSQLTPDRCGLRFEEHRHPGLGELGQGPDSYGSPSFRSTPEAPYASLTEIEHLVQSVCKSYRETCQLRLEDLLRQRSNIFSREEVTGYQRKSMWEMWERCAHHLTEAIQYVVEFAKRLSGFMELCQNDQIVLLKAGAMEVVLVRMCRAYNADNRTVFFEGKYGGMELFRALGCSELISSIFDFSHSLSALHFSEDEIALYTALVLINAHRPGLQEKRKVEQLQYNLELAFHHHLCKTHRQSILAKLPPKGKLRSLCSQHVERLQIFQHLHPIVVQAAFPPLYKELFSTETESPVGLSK
Assay: TR-FRET Assay
Settings: pH 7; 4 °C
Experimental: To identify novel antagonists of RORgammaT, an assay was developed which employs the interaction of RORgammaT with its co-activator peptide SRC1_2. […] The RORγ-LBD protein was purified by glutathione sepharose chromatography. […] The mixture was then diluted in assay buffer (50 mM Tris pH 7.0, 50 mM KCl, 1 mM EDTA, 0.1 mM DTT) to obtain RORγ-LBD final concentration of 3 nM in 384-well assay plate. Compounds to be tested were injected to the assay plate using Acoustic Droplet Ejection technology by Echo 550 liquid handler (Labcyte, Calif.).

Compound: CC1CC(c2nn(C(=O)c3c(Cl)cccc3C(F)(F)F)c3cccc(F)c23)=CC(O)C1C(=O)O (stereo unspecified) [US9487490, 6C]
- IC50: 5 nM
